According to patent US20080139387A1, “Fungicidal Mixtures” (BASF Aktiengesellschaft, priority 2004, published 2008):

System: Cochliobolus miyabeanus
Experiment: Activity against brown spot of rice caused by Cochliobolus miyabeanus, protective application
Format: in vivo
Conditions: individual active compound, rice seedlings, rated after six days
Procedure: The active compounds, separately or jointly, were prepared as a stock solution comprising 0.25% by weight of active compound in acetone or DMSO. 1% by weight of the emulsifier Uniperol® EL (wetting agent having emulsifying and dispersing action based on ethoxylated alkylphenols) was added to this solution, and the mixture was appropriately diluted with water to the desired concentration.
Use example—Activity against brown spot of rice caused by Cochliobolus miyabeanus, protective application Leaves of rice seedlings of the cultivar “Tai-Nong 67” which had been grown in pots were sprayed to runoff point with an aqueous suspension having the concentration of active compound stated below. The next day, the plants were inoculated with an aqueous spore suspension of Cochliobolus miyabeanus. The test plants were then placed in climatized chambers at 22-24° C. and 95-99% relative atmospheric humidity for six days. The extent of the development of infection on the leaves was then determined visually.
Evaluation is carried out by determining the infected leaf areas in percent. These percentages were converted into efficacies.
The efficacy (E) is calculated as follows using Abbot's formula: […]
α corresponds to the fungal infection of the treated plants in % and β corresponds to the fungal infection of the untreated (control) plants in % An efficacy of 0 means that the infection level of the treated plants corresponds to that of the untreated control plants; an efficacy of 100 means that the treated plants are not infected.
The expected efficacies of the mixtures of active compounds are determined using Colby's formula [R. S. Colby, Weeds, 15, 20-22 (1967)] and are compared with the observed efficacies.
E expected efficacy, expressed in % of the untreated control, when using the mixture of the active compounds A and B at the concentrations a and b x efficacy, expressed in % of the untreated control, when using active compound A at the concentration a y efficacy, expressed in % of the untreated control, when using active compound B at the concentration b

| Compound | Efficacy in % of the untreated control (4 ppm in the spray liquor) [%] | Efficacy in % of the untreated control (1 ppm in the spray liquor) [%] | Efficacy in % of the untreated control (16 ppm in the spray liquor) [%] |
| --- | --- | --- | --- |
| CC1CCN(c2c(-c3c(F)cc(F)cc3F)c(Cl)nc3ncnn23)CC1 [I, 5-chloro-7-(4-methylpiperidin-1-yl)-6-(2,4,6-trifluorophenyl)-[1,2,4]tri-azolo[1,5-a]pyrimidine] | 32 | – | – |
| CCCCCCCCCCCCCN1CC(C)OC(C)C1 (stereo not shown) [II (tridemorph), tridemorph] | 0 | 0 | 9 |
